“Also recorded” adds a separate entry of the source. No end group written: not given here.

Data set [1] relates to white blood cells within the liver sections. Put plainly: Fluorescence microscopy detection of FITC-labeled PIMAP39 in mouse liver sections after tail vein injection. It counts as in vivo. As to conditions: 1 mg FITC-PIMAP39 by tail vein injection, one hour post injection, vs DMSO alone. The protocol:
Macrophage samples: Cells (5×10^3) from 3 month old mice were seeded over cover slips (22 mm) in 6-well plates and were treated with 500 ng/ml FITC-PIMAP39 (B) or DMSO alone (A) and continuously incubated overnight. Cover slips were removed and cells were stained with 50 nM LysoTracker Red DND-99 (Invitrogen) for 1.5 hours and then air-dried. Tissue section samples: Mice were treated with 1 mg of FITC-PIMAP39 (E, F) or DMSO alone as control (C, D), by tail vein injection as described. One hour post injection mice were sacrificed and their livers were harvested. Harvested livers were set in uniform orientations in molds using Histoprep™ (Fisher). 10 μm thick cross-sections were cut and transferred with a paintbrush to glass slides followed by H & E staining. Cross-sections were made at −24° C. using an HM505E cryostat (Microm). Both the treated cells and sections above were exposed to visible light for structural identification (C & E) and fluorescent light for signal location (A, B, D & F) by Olympus BX40 microscope at 200× (A & B) or 1000× (C-F) magnification and photographed. The FITC-PIMAP39-induced fluorescent signal in some macrophages (B) or in the leukocytes within the veins of the liver (F) was observed. The images were taken with a MicroFIRE camera under exposure time (1 second for fluorescent light, 30 second for visible light). […]

The subject of data set [2] is LPS-induced endotoxic shock. Put plainly: Endotoxic shock assay: survival of mice after lethal dose of LPS + D-Gal. As to conditions: lethal dose LPS + control peptide. Type of data set: in vivo, mouse. The method, then:
(§1) (A) Weight-matched wild-type mice (n=15) were injected intraperitoneal (i.p.) with a lethal dose of LPS (1 mg D-Gal+12.5 ng LPS per gram body weight) followed immediately by tail vein injection of DMSO (black line), 40 µg/g SCpep as control (green line) or […] PIMAP39 (red line). The treated mice were monitored for their behavior and mortality every hour. The survival time of each treated mouse was graphed. […] (B) Blood was collected every 2 hours post injection for a total duration of 6 hours. Mice were warmed under heating lamps to promote blood flow and a small incision was made on the tail. About 10-50 μl of blood was collected per animal at each time point (2, 4 or 6 hours). […] Pooled plasma samples from the mice within each group were measured in triplets by ELISA (Abraxis) to see the effects of PIMAP39 on TNF-α production. ELISA immunoreactivity was quantitated using a microplate reader (Bio-Rad) and the results from the 6 hr mark were graphed (only the data for LPS+DMSO and LPS+PIMAP39 are presented here due to the similarity between LPS+DMSO and LPS+SCepetide). […]
(§2) To investigate how PIMAP39 mediates endotoxic shock, 3 month old, weight matched mice were treated with a lethal dose of LPS (12.5 ng LPS+1 mg D-Gal per gram body weight) followed immediately by a tail vein injection of PIMAP39 or controls. The treated mice were monitored for their behavior and mortality every hour. […]

The next data set relates to TNF-α. Put plainly: Plasma TNF-α by ELISA in the endotoxic shock assay. Type of data set: in vivo, mouse. As to conditions: 6 hr mark. The method, then:
as §1, §2

Take KYGATTVVRVCEVTYDKTPLEKDGITVV [PIMAP39]: the “presence / uptake of peptide in white blood cells in vivo (liver sections, fluorescent signal)” value in data set [1] is given as “cell permeable; also recorded: taken up”.

For the sequence VTGKLTDTEVVTAYVIDEPKYVCRVTGK [SCpep], in data set [2], the “time at which deaths occurred” value lay within 6 to 8 h and the “time at which most mice became sick” value lay within 3 to 4 h. The “plasma TNF-α compared with LPS+DMSO” value in the data set with TNF-α is on record as “similarity”.

The values above are taken from US8329643B2, “PIMAP39 modulates LPS-induced inflammatory response” (Trustees of Boston University, priority 2008, dated 2012).
